Structures can show the parent of a compound that is named as a salt. Where two headings read alike, the source gives them in different places.
Experiments:
[1] = molecular target: T1, D2S dopamine receptor (D2S) (Homo sapiens, UniProt P14416); experiment: Competitive radioligand binding assay, D2S (agonist radioligand); conditions: compound at 10 μM
T1 construct: expressed in transfected cells; host or cells: HEK-293 cells (membrane fractions)
Experimental: (§1) Compounds of the invention were tested for pharmacological activity in comparison to APC. Eight binding assays were carried out to provide a binding profile for each compound, including binding to dopamine transporter (DAT), norepinephrine transporter (NET), serotonin (5-HT) transporter (SERT), alpha2A adrenergic receptor (Alpha2A), alpha2C adrenergic receptor (Alpha2C), D2S dopamine receptor (D2S), D2L dopamine receptor (D2L), and vesicular monoamine transporter (VMAT2). Competitive binding assays using a radiolabeled ligand were carried out with each compound at 10 μM. The radioligand for each target was as follows: DAT—BTCP, NET—nisoxetine, SERT—imipramine, Alpha2A—yohimbine, Alpha2C—yohimbine, D2S—7-OH-DPAT, D2L—methylspiperone, VMAT2—tetrabenazine. The source of the receptors and transporters were prepared cell membrane fractions.

[2] = molecular target: T2, serotonin (5-HT) transporter (SERT) (Homo sapiens, UniProt P31645); experiment: Competitive radioligand binding assay, 5-HT transporter (antagonist radioligand); conditions: compound at 10 μM
T2 construct: expressed in transfected cells; host or cells: CHO cells (membrane fractions)
Experimental: as §1

[3] = molecular target: T3, dopamine transporter (DAT) (Homo sapiens, UniProt Q01959); experiment: Competitive radioligand binding assay, dopamine transporter (antagonist radioligand); conditions: compound at 10 μM; for binding to the dopamine transporter (in words): summary
T3 construct: expressed in transfected cells; host or cells: CHO cells (membrane fractions)
Experimental: as §1

[4] = molecular target: T4, alpha2A adrenergic receptor (Alpha2A) (Homo sapiens, UniProt P08913); experiment: Competitive radioligand binding assay, α2A (antagonist radioligand); conditions: compound at 10 μM
T4 construct: expressed in transfected cells; host or cells: CHO cells (membrane fractions)
T4 sequence (P08913 1-465): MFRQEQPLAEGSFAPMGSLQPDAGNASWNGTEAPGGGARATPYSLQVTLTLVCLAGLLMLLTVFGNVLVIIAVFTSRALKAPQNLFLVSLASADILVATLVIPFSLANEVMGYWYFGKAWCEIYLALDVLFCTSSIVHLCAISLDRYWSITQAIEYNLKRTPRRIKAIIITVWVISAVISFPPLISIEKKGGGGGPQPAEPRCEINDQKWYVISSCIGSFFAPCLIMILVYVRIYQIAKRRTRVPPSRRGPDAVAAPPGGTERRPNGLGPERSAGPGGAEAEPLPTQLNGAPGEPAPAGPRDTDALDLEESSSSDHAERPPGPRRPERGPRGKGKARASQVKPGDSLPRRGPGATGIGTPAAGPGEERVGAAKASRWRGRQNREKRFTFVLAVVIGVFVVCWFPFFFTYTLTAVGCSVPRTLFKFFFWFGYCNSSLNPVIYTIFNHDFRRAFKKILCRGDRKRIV
Experimental: as §1

[5] = molecular target: T5, norepinephrine transporter (NET) (Homo sapiens, UniProt P23975); experiment: Competitive radioligand binding assay, norepinephrine transporter (antagonist radioligand); conditions: compound at 10 μM; for binding to the norepinephrine transporter (in words): summary
T5 construct: expressed in transfected cells; host or cells: CHO cells (membrane fractions)
Experimental: as §1

[6] = molecular target: T6, D2L dopamine receptor (D2L) (Homo sapiens, UniProt P14416); experiment: Competitive radioligand binding assay, D2L (antagonist radioligand); conditions: compound at 10 μM
T6 construct: expressed in transfected cells; host or cells: HEK-293 cells (membrane fractions)
Experimental: as §1

[7] = molecular target: T7, vesicular monoamine transporter (VMAT2) (Rattus norvegicus, UniProt Q01827); experiment: Competitive radioligand binding assay, VMAT2 transporter (antagonist radioligand); conditions: compound at 10 μM
T7 construct: Rat brain; from tissue; host or cells: rat brain minus cerebellum, membrane fraction
Experimental: as §1

[8] = molecular target: T8, alpha2C adrenergic receptor (Alpha2C) (Homo sapiens, UniProt P18825); experiment: Competitive radioligand binding assay, α2C (antagonist radioligand); conditions: compound at 10 μM
T8 construct: expressed in transfected cells; host or cells: CHO cells (membrane fractions)
T8 sequence (P18825 1-462): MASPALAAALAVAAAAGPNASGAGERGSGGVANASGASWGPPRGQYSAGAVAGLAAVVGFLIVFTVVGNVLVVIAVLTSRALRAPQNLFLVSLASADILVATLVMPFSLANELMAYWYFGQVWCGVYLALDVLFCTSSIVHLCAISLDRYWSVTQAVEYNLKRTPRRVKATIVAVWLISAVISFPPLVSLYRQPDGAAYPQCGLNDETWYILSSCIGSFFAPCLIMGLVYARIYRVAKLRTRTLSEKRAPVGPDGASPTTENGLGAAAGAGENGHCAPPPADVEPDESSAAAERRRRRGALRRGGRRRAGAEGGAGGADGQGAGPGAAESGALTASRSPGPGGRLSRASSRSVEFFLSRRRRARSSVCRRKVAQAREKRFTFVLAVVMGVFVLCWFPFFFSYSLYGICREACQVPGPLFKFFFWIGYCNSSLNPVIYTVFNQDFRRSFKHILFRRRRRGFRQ
Experimental: as §1

[9] = D2S, 1st individual result, read-out: % inhibition of control specific binding, 1st
[10] = D2S, 2nd individual result, read-out: % inhibition of control specific binding, 2nd
[11] = D2S, mean, read-out: % inhibition of control specific binding, Mean
[12] = [3H]7-OH-DPAT 1 nM, human recombinant (HEK-293 cells), read-out: % Inhibition of Binding at Each Transporter or Receptor Target, D2S
[13] = 5-HT transporter, 1st individual result, read-out: % inhibition of control specific binding, 1st
[14] = 5-HT transporter, 2nd individual result, read-out: % inhibition of control specific binding, 2nd
[15] = 5-HT transporter, mean, read-out: % inhibition of control specific binding, Mean
[16] = [3H]imipramine 2 nM, human recombinant (CHO cells), read-out: % Inhibition of Binding at Each Transporter or Receptor Target, SERT
[17] = Dopamine transporter, 1st individual result, read-out: % inhibition of control specific binding, 1st
[18] = Dopamine transporter, 2nd individual result, read-out: % inhibition of control specific binding, 2nd
[19] = Dopamine transporter, mean, read-out: % inhibition of control specific binding, Mean
[20] = [3H]BTCP 4 nM, human recombinant (CHO cells), read-out: % Inhibition of Binding at Each Transporter or Receptor Target, DAT
[21] = 1st individual result, read-out: % inhibition of control specific binding, 1st
[22] = 2nd individual result, read-out: % inhibition of control specific binding, 2nd
[23] = mean, read-out: % inhibition of control specific binding, Mean
[24] = Norepinephrine transporter, 1st individual result, read-out: % inhibition of control specific binding, 1st
[25] = Norepinephrine transporter, 2nd individual result, read-out: % inhibition of control specific binding, 2nd
[26] = Norepinephrine transporter, mean, read-out: % inhibition of control specific binding, Mean
[27] = [3H]nisoxetine 1 nM, human recombinant (CHO cells), read-out: % Inhibition of Binding at Each Transporter or Receptor Target, NET
[28] = D2L, 1st individual result, read-out: % inhibition of control specific binding, 1st
[29] = D2L, 2nd individual result, read-out: % inhibition of control specific binding, 2nd
[30] = D2L, mean, read-out: % inhibition of control specific binding, Mean
[31] = [3H]methyl-spiperone 0.3 nM, human recombinant (HEK-293 cells), read-out: % Inhibition of Binding at Each Transporter or Receptor Target, D2L
[32] = VMAT2 transporter, single value, read-out: % inhibition of control specific binding, 1st
[33] = [3H]dihydrotetrabenazine 10 nM, rat brain (minus cerebellum), read-out: % Inhibition of Binding at Each Transporter or Receptor Target, VMAT2

T1 sequence (P14416 1-414 isoform P14416-2): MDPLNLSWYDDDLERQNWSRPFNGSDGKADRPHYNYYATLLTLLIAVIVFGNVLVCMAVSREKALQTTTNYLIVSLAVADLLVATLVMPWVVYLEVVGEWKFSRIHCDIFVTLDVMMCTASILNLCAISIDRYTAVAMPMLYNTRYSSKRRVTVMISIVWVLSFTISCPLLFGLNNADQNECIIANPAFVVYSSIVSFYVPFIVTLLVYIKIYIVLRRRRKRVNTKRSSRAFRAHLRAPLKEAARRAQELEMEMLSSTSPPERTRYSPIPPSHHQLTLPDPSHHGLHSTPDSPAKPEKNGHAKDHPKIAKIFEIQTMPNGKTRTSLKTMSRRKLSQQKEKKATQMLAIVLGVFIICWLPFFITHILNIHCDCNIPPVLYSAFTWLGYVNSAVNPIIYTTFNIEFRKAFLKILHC
T6 sequence (P14416 whole entry): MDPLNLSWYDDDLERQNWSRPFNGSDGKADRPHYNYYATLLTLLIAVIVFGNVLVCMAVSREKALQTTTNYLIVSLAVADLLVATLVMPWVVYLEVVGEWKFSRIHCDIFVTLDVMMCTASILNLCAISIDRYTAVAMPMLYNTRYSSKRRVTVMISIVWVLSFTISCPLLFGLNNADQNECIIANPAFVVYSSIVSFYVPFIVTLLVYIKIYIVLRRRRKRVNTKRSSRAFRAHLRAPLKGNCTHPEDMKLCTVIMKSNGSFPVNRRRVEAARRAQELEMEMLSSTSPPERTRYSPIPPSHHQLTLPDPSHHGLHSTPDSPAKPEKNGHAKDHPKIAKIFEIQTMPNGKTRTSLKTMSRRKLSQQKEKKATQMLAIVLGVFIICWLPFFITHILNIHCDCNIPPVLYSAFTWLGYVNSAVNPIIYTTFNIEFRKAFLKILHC
T2 sequence (P31645 whole entry): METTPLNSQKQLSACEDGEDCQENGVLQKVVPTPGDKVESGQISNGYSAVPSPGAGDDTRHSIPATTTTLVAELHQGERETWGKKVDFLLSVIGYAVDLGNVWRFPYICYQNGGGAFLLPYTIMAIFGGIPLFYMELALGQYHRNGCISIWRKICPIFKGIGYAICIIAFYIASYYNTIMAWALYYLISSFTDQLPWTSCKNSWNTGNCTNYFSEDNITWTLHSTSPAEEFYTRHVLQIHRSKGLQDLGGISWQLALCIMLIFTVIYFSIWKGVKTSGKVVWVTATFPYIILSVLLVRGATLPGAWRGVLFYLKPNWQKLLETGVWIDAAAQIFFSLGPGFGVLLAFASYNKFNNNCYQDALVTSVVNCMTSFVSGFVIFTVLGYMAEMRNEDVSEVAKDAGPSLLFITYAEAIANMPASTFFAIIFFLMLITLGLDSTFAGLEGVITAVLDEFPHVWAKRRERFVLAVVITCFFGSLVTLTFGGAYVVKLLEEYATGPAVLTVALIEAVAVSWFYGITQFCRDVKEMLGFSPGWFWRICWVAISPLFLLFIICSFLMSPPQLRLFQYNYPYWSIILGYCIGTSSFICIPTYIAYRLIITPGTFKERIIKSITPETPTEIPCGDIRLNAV
T3 sequence (Q01959 whole entry): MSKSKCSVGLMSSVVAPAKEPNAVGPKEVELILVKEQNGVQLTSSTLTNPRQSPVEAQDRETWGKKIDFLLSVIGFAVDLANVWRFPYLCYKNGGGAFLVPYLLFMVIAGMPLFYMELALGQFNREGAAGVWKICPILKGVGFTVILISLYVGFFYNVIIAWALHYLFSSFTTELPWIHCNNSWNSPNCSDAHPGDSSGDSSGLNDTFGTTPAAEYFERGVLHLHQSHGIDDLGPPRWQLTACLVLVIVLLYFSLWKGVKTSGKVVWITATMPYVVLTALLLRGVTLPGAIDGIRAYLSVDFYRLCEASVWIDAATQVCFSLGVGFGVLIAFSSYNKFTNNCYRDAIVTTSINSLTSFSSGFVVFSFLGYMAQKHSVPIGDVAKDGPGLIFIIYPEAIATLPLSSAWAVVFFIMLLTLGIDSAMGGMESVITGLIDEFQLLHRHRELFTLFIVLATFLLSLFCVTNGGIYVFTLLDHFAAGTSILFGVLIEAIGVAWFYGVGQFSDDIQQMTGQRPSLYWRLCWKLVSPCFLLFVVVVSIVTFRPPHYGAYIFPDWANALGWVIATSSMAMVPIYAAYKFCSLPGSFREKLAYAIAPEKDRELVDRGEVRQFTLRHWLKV
T5 sequence (P23975 whole entry): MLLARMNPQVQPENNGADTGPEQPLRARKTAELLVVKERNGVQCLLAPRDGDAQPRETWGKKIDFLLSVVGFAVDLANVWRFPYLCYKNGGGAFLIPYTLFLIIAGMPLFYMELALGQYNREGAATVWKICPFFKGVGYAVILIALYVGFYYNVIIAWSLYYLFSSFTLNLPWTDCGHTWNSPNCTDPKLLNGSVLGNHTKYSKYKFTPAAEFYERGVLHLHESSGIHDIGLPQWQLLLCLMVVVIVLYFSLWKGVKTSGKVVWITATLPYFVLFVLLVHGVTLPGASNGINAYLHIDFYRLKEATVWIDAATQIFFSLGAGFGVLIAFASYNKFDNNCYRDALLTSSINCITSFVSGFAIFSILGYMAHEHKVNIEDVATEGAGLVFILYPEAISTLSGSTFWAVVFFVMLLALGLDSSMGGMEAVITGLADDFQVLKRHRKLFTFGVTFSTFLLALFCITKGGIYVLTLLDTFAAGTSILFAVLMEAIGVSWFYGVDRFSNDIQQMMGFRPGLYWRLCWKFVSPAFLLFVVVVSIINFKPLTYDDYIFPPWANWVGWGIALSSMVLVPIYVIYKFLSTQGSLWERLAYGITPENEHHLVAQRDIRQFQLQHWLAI
T7 sequence (Q01827 whole entry): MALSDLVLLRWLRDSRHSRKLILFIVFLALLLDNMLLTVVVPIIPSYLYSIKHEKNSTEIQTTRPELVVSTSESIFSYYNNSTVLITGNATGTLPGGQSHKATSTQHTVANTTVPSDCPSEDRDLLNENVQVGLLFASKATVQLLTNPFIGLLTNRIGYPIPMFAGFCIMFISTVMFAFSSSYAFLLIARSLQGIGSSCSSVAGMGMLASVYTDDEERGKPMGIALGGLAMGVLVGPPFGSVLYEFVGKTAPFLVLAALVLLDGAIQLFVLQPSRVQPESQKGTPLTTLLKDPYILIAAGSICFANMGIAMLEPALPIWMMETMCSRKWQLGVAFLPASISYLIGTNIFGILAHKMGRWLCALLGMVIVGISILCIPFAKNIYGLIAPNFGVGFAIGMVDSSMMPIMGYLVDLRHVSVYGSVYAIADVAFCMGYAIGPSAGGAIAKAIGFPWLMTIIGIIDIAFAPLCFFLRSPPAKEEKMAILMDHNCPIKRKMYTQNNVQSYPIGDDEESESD

Row | SMILES | inhibition at 10 µM [1, 9] | inhibition at 10 µM [1, 10] | inhibition at 10 µM [1, 11] | inhibition at 10 µM [1, 12] | inhibition at 10 µM [2, 13] | inhibition at 10 µM [2, 14] | inhibition at 10 µM [2, 15] | inhibition at 10 µM [2, 16] | inhibition at 10 µM [3, 17] | inhibition at 10 µM [3, 18] | inhibition at 10 µM [3, 19] | inhibition at 10 µM [3, 20] | binding to the dopamine transporter (in words) [3] | inhibition at 10 µM [4, 21] | inhibition at 10 µM [4, 22] | inhibition at 10 µM [4, 23] | inhibition at 10 µM [5, 24] | inhibition at 10 µM [5, 25] | inhibition at 10 µM [5, 26] | inhibition at 10 µM [5, 27] | further results
1 | NC(=O)OC[C@H](N)Cc1ccccc1 [APC, (R)-2-amino-3-phenylpropyl carbamate, reference compound] | 0.7% | 8.2% | 4.4% | 4.4% | -6.3% | -3.3% | -4.8% | -4.8% | 79.3% | 81.1% | 80.2% | 80.2% | substantial binding | 5.2% | 8.7% | 7% | 6.9% | 16% | 11.4% | 11.4% | inhibition at 10 µM [6, 28]: -0.1%; inhibition at 10 µM [6, 29]: 4.6%; inhibition at 10 µM [6, 30]: 2.3%; inhibition at 10 µM [6, 31]: 2.3%; inhibition at 10 µM [7, 32]: 7%; inhibition at 10 µM [7, 33]: 7%; inhibition at 10 µM [8, 21]: 4.1%; inhibition at 10 µM [8, 22]: 2.3%; inhibition at 10 µM [8, 23]: 3.2%
2 | N[C@@H](COS(N)(=O)=O)Cc1ccccc1 [Compound 9, (R)-2-Amino-3-phenylpropyl sulfamate hydrochloride] | 45.3% | 33.7% | 39.5% | 39.5% | -1.7% | -3.7% | -2.7% | -2.7% | 26.4% | 44% | 35.2% | 35.2% | substantial | 65.7% | 70.8% | 68.3% | -3.7% | 14% | 5.1% | 5.1% | binding to the norepinephrine transporter (in words) [5]: substantial binding; inhibition at 10 µM [6, 28]: -2.2%; inhibition at 10 µM [6, 29]: -6.8%; inhibition at 10 µM [6, 30]: -4.5%; inhibition at 10 µM [6, 31]: -4.5%; inhibition at 10 µM [7, 32]: 16%; inhibition at 10 µM [7, 33]: 16%; inhibition at 10 µM [8, 21]: 65.8%; inhibition at 10 µM [8, 22]: 60.9%; inhibition at 10 µM [8, 23]: 63.4%
3 | NC(=S)OC[C@H](N)Cc1ccccc1 [Compound 8, (R)—O-(2-Amino-3-phenylpropyl) carbamothioate dihydrochloride] | 33.5% | 21.4% | 27.4% | 27.4% | -1.9% | -2.4% | -2.1% | -2.1% | 67.9% | 95.4% | 81.6% | 81.6% | substantial | 60% | 61.3% | 60.6% | 29.5% | 46.1% | 37.8% | 37.8% | binding to the norepinephrine transporter (in words) [5]: substantial binding; inhibition at 10 µM [6, 28]: -0.5%; inhibition at 10 µM [6, 29]: 2.7%; inhibition at 10 µM [6, 30]: 1.1%; inhibition at 10 µM [6, 31]: 1.1%; inhibition at 10 µM [7, 32]: 6%; inhibition at 10 µM [7, 33]: 6%; inhibition at 10 µM [8, 21]: 50.6%; inhibition at 10 µM [8, 22]: 47%; inhibition at 10 µM [8, 23]: 48.8%

Source: patent US11413264B2, “Carbamoyl phenylalaninol analogs and uses thereof” (Jazz Pharmaceuticals Ireland Limited, priority 2017, dated 2022)
